According to publication PMC9865214 (International Journal of Molecular Sciences, 2023):
Where a name gives a salt, the structure may show the parent alone. One block for each compound: values may come before it.

Assays:
[1] = IPI content of L3-L5 spinal segments by mass spectrometry; format: in vivo, Wistar rat; settings: CART(55-76)-treated inflamed rats; LC-MS/MS; p = 0.032 vs inflamed, p = 0.027 vs naive
Procedure: Three naïve adult male Wistar rats (NG10, NG11, and NG12), 3 rats with unilateral carrageenan-induced hind paw inflammation (GG9, GG10, and GG11), and 3 inflamed rats that received CART(55-76) peptide intrathecally (CG9, CG10, and CG11) were decapitated, and L3–L5 spinal cord segments were removed and snap frozen on dry ice. Tissue was homogenized by sonication in cold acetonitrile (4 °C) in a volume of 10 µL/mg of tissue and centrifuged for 10 min at 14,000 rpm. Supernatant was transferred into Eppendorf tubes and stored at −80 °C until use.
Standard solution of IPI was used for making the calibration curve in the range of 0–50 ng/mL. […] Water containing 0.1% formic acid (eluent A) and acetonitrile containing 0.1% formic acid (eluent B) were used for separation in gradient mode. […] The initial concentration was reached within 0.5 min, and the equilibration time was 5.5 min. The flow rate was 0.5 mL/minute. Column temperature was ambient. The injection volume was 10 µL. […] MRM transitions were identified in product ion scan mode. […] Dwell times were 150 ms for each transition.

[2] = system: TLR4 activation-induced cytokine expression; settings: cited from earlier work
From the text: The synaptic model of hyperalgesia is the LTP at C-fibre synapses. The induction of hyperalgesia and LTP by inducible mediators including TNFα was discovered and called gliogenic LTP [35]. […] The opioid-mediated effect is established by an exogenous peptide if an opioid receptor is activated or if an endogenous opioid release is induced.

[3] = system: TLR4 in the TLR4/myeloid differentiation protein-2 heterodimer; settings: ref [68],[69],[70] (NTX, naloxone), [71] (CTAP); cited from earlier work
From the text: (§1) The opioid-mediated effect is established by an exogenous peptide if an opioid receptor is activated or if an endogenous opioid release is induced.

[4] = system: inflammatory hyperalgesia; settings: naltrexone alone; ref [67]; cited from earlier work
From the text: as §1

[5] = system: chronic constriction injury model; settings: chronic constriction injury model in rats; ref [75]; cited from earlier work
From the text: (§2) The similarity of the first two amino acids in the N-terminal region of CART(62-76) to endogenous opioid peptides raises the possibility that this fragment may also bind to […]. Specific binding studies are necessary to answer this question. […] Further studi ...

chronic pain states = settings: low-dose NTX, humans; ref [76]; cited from earlier work
From the text: as §2

[6] = system: hyperalgesia provoked by carrageenan or partial nerve ligation; settings: no ref given; cited from earlier work
From the text: Further studies are needed to reveal the signalling mechanism to understand this process.

[7] = system: spinal astrocytes (TNFα secretion); experiment: TNFα secretion of LPS-stimulated spinal astrocyte cultures, ELISA; format: cell-based, Wistar rat; settings: 1 μg/mL LPS, control level set to 100%
Procedure: (§3) For the production of spinal cord astrocyte cultures, we followed the procedure already described by Pap et al. with slight modifications. Briefly, the whole spinal cord was removed from 7–8 day-old Wistar rat pups after decapitation and was placed into ice-cold dissecting buffer (136 mM NaCl, 5.2 mM KCl, 0.64 mM Na2HPO4, 0.22 mM KH2PO4, 16.6 mM glucose, 22 mM sucrose, 10 mM HEPES supplemented with 0.06 U/mL penicillin and 0.06 U/mL streptomycin). The isolated spinal cords were cleaned of the meninges, then were placed into fresh dissecting solution containing 0.025 g/mL bovine trypsin (Merck–Sigma-Aldrich), and were incubated at 37 °C for 30 min. Then, the solution was replaced by Minimum Essential Medium (MEM, Gibco, Life Technologies Ltd., Parsely, UK) supplemented with 10% Fetal Bovine Serum (FBS, Hyclone, GE Healthcare Bio-Sciences, Pittsburgh, PA, USA). […]
ELISA was performed as already described. […] Colour reaction was developed by o-phenylene-diamine, and the optical density was measured at λ = 492 nm by ELISA plate reader (Titertek, Uniscan, Flow Laboratories, Helsinki, Finland).
Optical density data were averaged, and the standard error of mean values was calculated for each treatment. […] Statistically significant differences were calculated by one-way ANOVA followed by Student-Newman-Keuls pairwise comparison. […]

[8] = system: spinal astrocytes (DPP4 expression); experiment: DPP4 expression of spinal astrocytes, western blot; format: cell-based, Wistar rat; settings: 1 μg/mL LPS
Procedure: as §3, with “USA). Finally, cells were suspended by gentle suspension of the tissue pieces by a Pasteur pipette. The cell number was identified, the cell density was set to 1 × 10^6/mL, and the cells were placed into 24 well tissue culture plates (0.5 mL/well).” for “USA).”
Fractions of 50 µg protein/lane cytosol were run on 10% polyacrylamide gels. […] Relative protein levels for DPP4 upon 16 h of LPS treatment were quantified by densitometry in three independent astrocyte cultures and analysed by the Kolmogorov-Smirnov statistical test.

[9] = system: spinal astrocytes (DPP4, TLR4, caveolin-1); experiment: Immunocytochemistry of spinal astrocytes (DPP4, TLR4, caveolin-1); format: cell-based, Wistar rat
Procedure: as §3, with “USA). Finally, cells were suspended by gentle suspension of the tissue pieces by a Pasteur pipette. The cell number was identified, the cell density was set to 1 × 10^6/mL, and the cells were placed into 24 well tissue culture plates (0.5 mL/well). The cell cultures were kept at 37 °C in a 5% CO2 atmosphere, and the medium was replaced the following day and then every second day.” for “USA).”

IPI concentration of spinal segments, change [1]: increased significantly
Compound: CC[C@H](C)[C@H](N)C(=O)N1CCC[C@H]1C(=O)N[C@H](C(=O)O)[C@@H](C)CC [IPI, isoleucine-proline-isoleucine]

Compound: O=C1CC[C@@]2(O)[C@H]3Cc4ccc(O)c5c4[C@@]2(CCN3CC2CC2)[C@H]1O5 [NTX, naltrexone hydrochloride]
Effect on TLR4 agonist-induced cytokine production ([2]; ref [72]): did not block the TLR4 agonist-induced cytokine production | TLR4 antagonism [3]: TLR4 antagonists | Effect on inflammatory hyperalgesia [4]: no effect on inflammatory hyperalgesia | Antiallodynic effect [5]: antiallodynic effect | Effect in chronic pain states (chronic pain states): effective in a variety of chronic pain states in humans

Compound: Cn1c(=O)cc(N2CCC[C@@H](N)C2)n(Cc2ccccc2C#N)c1=O [algogliptin]
Effect on TLR4 activation-induced cytokine expression ([2]; IL-6, IL-1β and other cytokines, ref [57]): decreased the TLR4 activation-induced IL-6, IL-1β, and other cytokine expression

Compound: C=CCN1CC[C@]23c4c5ccc(O)c4O[C@H]2C(=O)CC[C@@]3(O)[C@H]1C5 [naloxone]
TLR4 antagonism [3]: TLR4 antagonists

Compound: N#C[C@@H]1CCCN1C(=O)CNC12CC3CC(CC(O)(C3)C1)C2 [vildagliptin]
Antihyperalgesic effect in neuropathic condition [6]: antihyperalgesic effects in a neuropathic condition

Compound: D-Phe-Cys-Tyr-D-Trp-Arg-Thr-Pen-Thr-NH2 [CTAP]
TLR4 antagonism [3]: TLR4 antagonists

Compound: lipopolysaccharide [LPS]
Relative TNFα secretion with LPS [7]: 368 ± 9% | DPP4 optical density value ([8]; 16 h (control 0.62 ± 0.084), densitometry): 1.08 ± 0.059 | DPP4 expression level increase ([8]; 16 h, vs control cultures, three independent cultures, ± SEM): 74.3 ± 9.6% | DPP4 staining intensity ([9]; 1 μg/mL LPS, 6 h): considerably increased | TLR4 and caveolin-1 subcellular localization ([9]; LPS-stimulated cultures, 1 μg/mL): both proteins were trafficked toward the cell surface
